Results published in patent US4873237A, “2,3-dihydro- thiazolo- and thiazino- benzimidazoles as atni-hyper secretion agents” (John Wyeth & Brother Limited, priority 1983, dated 1989).

Experiments:
Male rats = assay: stress-induced erosion test of Senay and Levine (anti-ulcer activity); type: in vivo; details: dosed orally, cold restraint 3 hours
Protocol: Anti-ulcer activity was determined by the stressinduced erosion test of Senay and Levine, Proc. Soc. Exp. Biol. Med., 124, 1221-3 (1967). The procedure used was as follows.
Male rats, weighing between 80 and 120 gms. were fasted overnight with water ad lib. The rats were then divided into groups of six and dosed orally with the test drug in the form of a solution or with the vehicle alone, 0.5% carboxymethylcellulose, in a volume of 10ml/kg.
After 30 minutes the rats were inserted into aluminium restraining tubes measuring 15/8 inches in diameter by 5 inches and placed in the cold (4±1° C.) for 3 hours. Immediately after cold exposure the rats were killed with intracranial alcohol and their stomachs excised and opened along the greater curvature. Each stomach was washed gently free of contents with warm tap water and pinned out on a board. The condition of the gastric mucosa was then scored from 0 to 6 on the following scale:
The maximum possible score for each animal was 6 and for the group 36. Decrease in ulcer formation was calculated as a percentage of the control score, i.e. [formula] The statistical significance of the effect is assessed by Student's t-test.

H^+ /K^+ ATPase = molecular target: T1, H^+ /K^+ ATPase (Oryctolagus cuniculus, UniProt P27112); assay: 14C-aminopyrine uptake in rabbit isolated gastric glands stimulated by DBcAMP or high K+; type: cell-based; details: at 10^-4 M, read-out: % Inhibition to stimulation by K^+
T1 construct: Rabbit gastric glands are isolated from gastric mucosa from the corpus region of the stomach; from tissue; host or cells: rabbit isolated gastric glands (gastric mucosa, corpus region of the stomach)
Protocol: Compounds of formula I were also tested for anti-secretory activity by their ability to inhibit the highly specific proton transporting enzyme H^+ /K^+ ATPase.
Potential H^+ /K^+ ATPase inhibitors were evaluated by a technique involving the measurement of aminopyrine accumulation in rabbit isolated gastric glands. Aminopyrine accumulates in acid-secreting cells; therefore, uptake of aminopyrine is increased by secretagogues and an inhibitor of acid secretion will reduce the response to one or more secretagogues depending upon its site of action. Compounds which reduce the response to dibutyryl cyclic adenosine monophosphate (DBcAMP) stimulation are assumed to have an intracellular site of action; and those which reduce the response to both DBcAMP and high potassium ion concentration (K^+) are thought to have an intracellular site of action at the secretory surface of the parietal cell, involving the highly specific proton-transporting enzyme, H^+ /K^+ ATPase.
The following test procedure is used: […]
Compounds are tested at a concentration of 10^-4 M, initially, and in some cases at lower concentrations, for their ability to inhibit ^14 C-aminopyrine uptake in gastric glands, stimulated by DBcAMP and high K^+ respectively. Results are expressed as the % inhibition of the maximum response to the secretagogue induced by the test compound. […]

T1 sequence (P27112 2-1035 limits assumed): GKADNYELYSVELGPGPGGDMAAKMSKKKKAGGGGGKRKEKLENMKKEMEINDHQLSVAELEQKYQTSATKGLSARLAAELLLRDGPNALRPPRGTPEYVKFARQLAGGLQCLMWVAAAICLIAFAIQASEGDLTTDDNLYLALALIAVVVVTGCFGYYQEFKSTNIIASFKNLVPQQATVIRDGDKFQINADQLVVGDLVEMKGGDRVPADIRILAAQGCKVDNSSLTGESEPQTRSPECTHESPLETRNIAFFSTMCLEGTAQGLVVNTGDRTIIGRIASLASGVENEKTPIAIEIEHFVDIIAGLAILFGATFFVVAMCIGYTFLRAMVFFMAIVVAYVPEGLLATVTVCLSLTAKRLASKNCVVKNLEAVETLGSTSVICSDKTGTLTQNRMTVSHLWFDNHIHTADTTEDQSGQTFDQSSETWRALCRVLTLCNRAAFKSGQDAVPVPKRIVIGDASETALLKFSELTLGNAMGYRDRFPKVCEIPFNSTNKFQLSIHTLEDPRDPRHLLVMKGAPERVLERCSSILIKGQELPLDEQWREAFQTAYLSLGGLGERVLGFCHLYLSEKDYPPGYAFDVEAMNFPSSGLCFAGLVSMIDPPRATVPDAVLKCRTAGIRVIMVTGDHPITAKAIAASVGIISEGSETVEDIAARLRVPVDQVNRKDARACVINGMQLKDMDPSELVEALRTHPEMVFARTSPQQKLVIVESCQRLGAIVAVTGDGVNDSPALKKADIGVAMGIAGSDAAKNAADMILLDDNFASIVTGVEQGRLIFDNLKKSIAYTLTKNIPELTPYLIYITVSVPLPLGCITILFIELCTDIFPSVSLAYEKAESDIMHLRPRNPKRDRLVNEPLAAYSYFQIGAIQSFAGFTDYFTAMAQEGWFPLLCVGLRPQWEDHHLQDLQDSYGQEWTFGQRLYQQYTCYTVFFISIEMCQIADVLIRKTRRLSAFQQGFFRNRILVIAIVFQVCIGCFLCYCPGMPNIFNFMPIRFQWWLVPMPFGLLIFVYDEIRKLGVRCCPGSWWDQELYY
T1 sequence (P18597 whole entry partner): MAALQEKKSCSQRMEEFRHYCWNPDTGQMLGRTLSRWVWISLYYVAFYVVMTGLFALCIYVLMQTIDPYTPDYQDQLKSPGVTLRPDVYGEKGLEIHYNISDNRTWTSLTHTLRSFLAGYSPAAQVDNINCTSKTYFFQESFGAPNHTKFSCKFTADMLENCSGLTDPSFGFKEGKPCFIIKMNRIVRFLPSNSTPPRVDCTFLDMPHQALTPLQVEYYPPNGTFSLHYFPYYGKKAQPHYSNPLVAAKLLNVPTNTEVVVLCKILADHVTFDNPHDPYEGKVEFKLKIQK

inhibition at 100 µM (H^+ /K^+ ATPase) [%]	SMILES	Inhibition (decrease in ulcer formation as percentage of control score) (Male rats; dose 30 mg/kg) [%]	Inhibition (decrease in ulcer formation as percentage of control score) (Male rats; dose 100 mg/kg) [%]
	c1ccc(C2Cn3c(nc4ccccc43)S2)nc1 (centres unmarked) [Example 1, 2,3-Dihydro-2-(2-pyridyl)thiazolo[3,2-a]benzimidazole]	86	75
	c1ccc(C2Cn3c(nc4ccccc43)S2)cc1 (centres unmarked) [Example 3, 2,3-Dihydro-2-phenylthiazolo[3,2-a]benzimidazole]		74
74	Clc1cc2nc3n(c2cc1Cl)CC(c1ccccn1)S3 (centres unmarked) [Example 8, 6,7-Dichloro-2,3-dihydro-2-(2-pyridyl)thiazolo[3,2-a]benzimidazole]		
	Cc1cc2nc3n(c2cc1C)CC(c1ccccn1)S3 (centres unmarked) [Example 9, 2,3-Dihydro-6,7-dimethyl-2-(2-pyridyl)thiazolo[3,2-a]benzimidazole]		82
